Data set [1] deals with ears of female Balb/C mice. The data set can be described thus: Ear swelling response (skin irritation from topical application). The format is in vivo. As for the experimental part:
To examine the potential for irritation from topical application of a NOS inhibitor to the skin, measurements of ear swelling response were performed as follows: The thickness of both ears of each of three female Balb/C mice, 10 weeks of age, was measured with a thickness gage (Mitsutoyo Corp.). Ten microliters of 1% L-NAME (L-N^G-nitro-arginine methyl ester) in 70% ethanol in water was applied to each right ear, and 10 microliters of 70% ethanol in water was applied to each left ear as a control. Ear thickness was monitored over two consecutive days following administration of the solutions.

The test system of data set [2] is back skin of mice (HR-1 hairless strain). The data set can be described thus: Wrinkle formation caused by UVB exposure, analysis of back skin replicas (Wrinkle Analyzer 3D Pro). The format is in vivo. From the text: The effect of a compound on the formation or appearance of wrinkles can be evaluated qualitatively, e.g., by visual inspection, or quantitatively, e.g., by computer assisted measurements of wrinkle morphology. Preferably, wrinkle morphology is quantitatively analyzed. Examples of quantitative methods for measuring wrinkles include, but are not limited to, the optical cut technique employing a laser beam, as proposed by Hoshino (1992) Pixel 45:121, herein incorporated by reference; or methods which analyze three-dimensional skin replicas, e.g., the Shiseido Wrinkle Analyzer 3D Pro system (Takasu et al. (1996) J Soc Cosmet Chem Japan 29:394-405; Japanese Published Patent Application No. 07-113623, published May 2, 1995 (corresponds to U.S. patent application Ser. No. 08/364,346)). The SILFLO (Flexico Development Ltd.) system or a similar system can be used to take a replica of the skin. Irregularities on the surface of the skin replica, i.e., wrinkles, are analyzed, e.g., with the Shiseido Wrinkle Analyzer 3D Pro or a similar system, to provide three-dimensional shape data from the heights at points on a two-dimensional plane corresponding to the skin. According to the three-dimensional data, the length, width, depth, area, and volume of each wrinkle is calculated. According to the parameters for regular and fine wrinkles described herein, different classes of wrinkles, including the subclasses of regular and fine wrinkles, can thus be individually recognized and scored.
To examine the effect of L-NAME on wrinkle formation, wrinkle measurements experiments were performed on the back skin of mice (HR-1 hairless strain, female, 5 weeks of age, n=3) by taking and analyzing skin replicas.
Mice were exposed to UVB irradiation three times a week for ten weeks beginning with 0.3mW/cm^2. The total exposure was 4.662J/cm^2. 100 microliters of 1% L-NAME in 70% ethanol, or 70% ethanol as a control, was applied after each UVB irradiation. Three days after the final UVB irradiation, skin replicas of the dorsal area were taken by means of SILFLO (Flexico Development Ltd.). Replicas were evaluated by the Wrinkle Analyzer 3D Pro developed by Shiseido (essentially as described in Takasu et al. (1996) J Soc Cosmet Chem Japan 29:394-405). Wrinkdle volume and width of regular and fine wrinkles was calculated through three-dimensional data.

Where [3] appears, read: UVB three times a week for ten weeks, 100 microliters of 1% L-NAME in 70% ethanol after each irradiation, replicas three days after final UVB.

Entries after “also recorded” stand apart in the source; their conditions may differ.

As to `COC(=O)[C@@H](N)CCCNC(=N)N[N+](=O)[O-]` [L-NAME, L-N^G-nitro-arginine methyl ester], the “Difference in ear thickness between control and treated ears” value in data set [1] (1% L-NAME in 70% ethanol vs 70% ethanol control, over two days) is “no statistically significant difference in ear thickness”. Moreover, in data set [1] (1% L-NAME in 70% ethanol, topical on ear), the “Skin inflammation / other signs of irritation (redness, flaking)” value was “did not cause skin inflammation; also recorded: no other signs of skin irritation or inflammation”. The “Ear thickness DAY 0, AVE ± SD” value in data set [1] (Day 0, right ears, 10 microliters of 1% L-NAME in 70% ethanol topical, three female Balb/C mice) was 26.33 ± 0.58 × 0.01 mm. In data set [1] (Day 1 after application, right ears, 10 microliters of 1% L-NAME in 70% ethanol topical), the “Ear thickness DAY 1, AVE ± SD” value turned out to be 25.33 ± 0.58 × 0.01 mm. Besides, in data set [1] (Day 2 after application, right ears, 10 microliters of 1% L-NAME in 70% ethanol topical), the “Ear thickness DAY 2, AVE ± SD” value stood at 26.33 ± 0.58 × 0.01 mm. The “Effect on fine wrinkle formation caused by UVB exposure” value in data set [2] (1% L-NAME in 70% ethanol on back skin of mice, compared to control mice) is listed as “prevented the formation of fine wrinkles; also recorded: reduction in fine wrinkles”. Further, in data set [2] (setting [3]), the “Wrinkle volume, fine wrinkles” value is 175,295 pixels; the “Wrinkle volume, regular wrinkles” value is reported as 896,863 pixels; the “Wrinkle volume, total (regular + fine)” value is 1,072,158 pixels.

For the origin of these results see patent US20020168325A1, “NOS inhibitors for treatment of wrinkles” (priority 2001, published 2002).
